The record followed here is patent US12404289B2 (Gilead Sciences, Inc., priority 2020, dated 2025).

The structures appear in SMILES notation. Read-outs that look alike come from different tables or passages of the source.

Broadly, the EC50 is the concentration that produces a half-maximal response.

The test system of assay [1] is Respiratory syncytial virus (RSV) strain A2. The assay is described as follows: RSV antiviral assay (HEp-2, 96 well). It counts as cell-based. The settings on record: Table 3.
Another assay concerns SARS-CoV-2. The assay is described as follows: SARS-CoV-2 antiviral assay (A549-hACE2, Nano luciferase). The assay is classed as cell-based. The settings on record: Table 4.
Setting [2] is: read-out: EC50 RSV HEP2 96, HEp-2 cells, RSV A2, MOI=4, 4 days, 96 well.
The mark [3] stands for this setting: A549-hACE2 cells, SARS-CoV2-Nano, MOI 0.025, 48 h, read-out: EC50 SARS CoV2.
Setting [4] is: human respiratory syncytial virus, HEp-2, 96 h, read-out: EC50 RSV HEP2 96, HEp-2 cells, RSV A2, MOI=4, 4 days, 96 well.
Where [5] appears, read: Severe acute respiratory syndrome coronavirus 2, 48 h, A549-hACE2 cells, SARS-CoV2-Nano, MOI 0.025, 48 h, read-out: EC50 SARS CoV2.

On to `CCC(=O)O[C@H]1[C@@H](OC(=O)CC)[C@](C#N)(c2ccc3c(N)ncnn23)O[C@@H]1COP(=O)(N[C@@H](C)C(=O)OC1CCC1)Oc1ccc(C2CC2)cc1` (single isomer, unassigned) [Example 54b], for which the figures for the EC50 (in assay [1] (setting [2]); with SARS-CoV-2 (setting [3])) were 20.9 nM and 164 nM, respectively. As to `CCC(CC)COC(=O)[C@H](C)NP(=O)(OC[C@H]1O[C@@](C#N)(c2ccc3c(N)ncnn23)[C@H](OC(=O)C(C)C)[C@@H]1OC(=O)C(C)C)Oc1cccc2ccccc12` (stereo partly drawn) [Example 70, [(2R,3R,4R,5R)-5-(4-aminopyrrolo[2,1-f][1,2,4]triazin-7-yl)-5-cyano-2-[[[[(1S)-2-(2-ethylbutoxy)-1-methyl-2-oxo-ethyl]amino]-(1-naphthyloxy)phosphoryl]oxymethyl]-4-(2-methylpropanoyloxy)tetrahydrofuran-3-yl] 2-methylpropanoate], the EC50 in assay [1] (setting [4]) is 49 nM; in the assay on SARS-CoV-2 (setting [5]), 319 nM.

For `C[C@H](NP(=O)(OC[C@H]1O[C@@](C#N)(c2ccc3c(N)ncnn23)[C@H](O)[C@@H]1O)Oc1ccc(C(C)(C)C)cc1)C(=O)OCC1CCC1` (stereo partly drawn) [Example 59, cyclobutylmethyl (2S)-2-[[[(2R,3S,4R,5R)-5-(4-aminopyrrolo[2,1-f][1,2,4]triazin-7-yl)-5-cyano-3,4-dihydroxy-tetrahydrofuran-2-yl]methoxy-(4-tert-butylphenoxy)phosphoryl]amino]propanoate], the results for the EC50 (in assay [1] (setting [4]); in the assay with SARS-CoV-2 (setting [5])) were 25.3 nM and 160 nM, respectively. In the same order, the values of `CCOC(=O)[C@H](C)NP(=O)(OC[C@H]1O[C@@](C#N)(c2ccc3c(N)ncnn23)[C@H](O)[C@@H]1O)Oc1cccc2ccccc12` (stereo partly drawn) [Intermediate S1, ethyl (2S)-2-[[[(2R,3S,4R,5R)-5-(4-aminopyrrolo[2,1-f][1,2,4]triazin-7-yl)-5-cyano-3,4-dihydroxy-tetrahydrofuran-2-yl]methoxy-(1-naphthyloxy)phosphoryl]amino]propanoate] are 93.3 nM and 714 nM. As to `C[C@H](NP(=O)(OC[C@H]1O[C@@](C#N)(c2ccc3c(N)ncnn23)[C@H](O)[C@@H]1O)Oc1cccc2ccccc12)C(=O)OC1CCC1` (single isomer, unassigned) [Intermediate P7a-2], the EC50 came out at 65.1 nM in assay [1] (setting [2]) and 275 nM in the assay on SARS-CoV-2 (Severe acute respiratory syndrome coronavirus 2, 48 h, read-out: EC50 SARS CoV2, A549-hACE2 cells, SARS-CoV2-Nano, MOI 0.025, 48 h). Take `CCC(=O)O[C@H]1[C@@H](OC(=O)CC)[C@](C#N)(c2ccc3c(N)ncnn23)O[C@@H]1COP(=O)(N[C@@H](C)C(=O)OC1CCC1)Oc1ccc(C2CC2)cc1` (single isomer, unassigned) [Example 54a]: the EC50 in assay [1] (setting [4]) was 13.1 nM; in the assay with SARS-CoV-2 (setting [5]), 102 nM. Turning to `CCC(CC)COC(=O)[C@H](C)NP(=O)(OC[C@H]1O[C@@](C#N)(c2ccc3c(N)ncnn23)[C@H](OC(C)=O)[C@@H]1OC(C)=O)Oc1cccc2ccccc12` (single isomer, unassigned) [Example 78a], the EC50 in assay [1] (setting [2]) is 65.2 nM; in the assay with SARS-CoV-2 (setting [3]), 117 nM. In the case of `CCC(C)(C)COC(=O)[C@H](C)NP(=O)(OC[C@H]1O[C@@](C#N)(c2ccc3c(N)ncnn23)[C@H](O)[C@@H]1O)Oc1ccc(C(C)(C)C)cc1` (stereo partly drawn) [Example 121, 2,2-dimethylbutyl ((((2R,3S,4R,5R)-5-(4-aminopyrrolo[2,1-f][1,2,4]triazin-7-yl)-5-cyano-3,4-dihydroxytetrahydrofuran-2-yl)methoxy)(4-(tert-butyl)phenoxy)phosphoryl)-L-alaninate], the EC50 is 23.5 nM in assay [1] (setting [4]) and 110 nM in the assay on SARS-CoV-2 (setting [5]).

On to `CC(=O)O[C@H]1[C@@H](OC(C)=O)[C@](C#N)(c2ccc3c(N)ncnn23)O[C@@H]1COP(=O)(N[C@@H](C)C(=O)OC1CCC1)Oc1ccc(C2CC2)cc1` (single isomer, unassigned) [Example 53a], for which the EC50 in assay [1] (setting [4]) worked out at 38.1 nM. `CCCCCCOC(=O)[C@H](Cc1ccccc1)NP(=O)(OC[C@H]1O[C@@](C#N)(c2ccc3c(N)ncnn23)[C@H](O)[C@@H]1O)Oc1ccc(C(C)(C)C)cc1` (stereo partly drawn) [Example 119, hexyl ((((2R,3S,4R,5R)-5-(4-aminopyrrolo[2,1-f][1,2,4]triazin-7-yl)-5-cyano-3,4-dihydroxytetrahydrofuran-2-yl)methoxy)(4-(tert-butyl)phenoxy)phosphoryl)-L-phenylalaninate]: the EC50 in assay [1] (setting [4]) worked out at 559 nM.
